Experimental data from PubChem BioAssay (NCI).
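Exposure lasted 48 hours, with cells grown in 96-well plates and compounds tested at five concentrations. GI50: concentration for 50% inhibition of growth. At the TGI there is no net growth.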

Key:
Experiment in all cases: NCI tumour cell line growth inhibition, 48 h
[1] = tested on: RPMI-8226 leukemia
[2] = tested on: CAKI-1 renal
[3] = tested on: A549 NSCLC
[4] = tested on: SF-268 CNS
[5] = tested on: NCI-H522 lung
[6] = tested on: MCF7 breast
[7] = tested on: SF-295 CNS
[8] = tested on: SR leukemia
[9] = tested on: SNB-75 CNS
[10] = tested on: LOX IMVI melanoma

| SMILES | GI50 [1] [µM] | TGI [1] [µM] | GI50 [2] [µM] | TGI [2] [µM] | GI50 [3] [µM] | TGI [3] [µM] | GI50 [4] [µM] | TGI [4] [µM] | GI50 [5] [µM] | TGI [5] [µM] | GI50 [6] [µM] | TGI [6] [µM] | GI50 [7] [µM] | TGI [7] [µM] | GI50 [8] [µM] | TGI [8] [µM] | GI50 [9] [µM] | TGI [9] [µM] | GI50 [10] [µM] | TGI [10] [µM] |
| --- | --- | --- | --- | --- | --- | --- | --- | --- | --- | --- | --- | --- | --- | --- | --- | --- | --- | --- | --- | --- |
| Cc1ccccc1NC(=O)c1cc2ccccc2cc1O | 2.83 | 8.9 | 2.01 | 5.87 | 3.48 | > 100 | 3.68 | > 100 | 2.62 | 9.39 | 3.46 | 37.1 | 3.03 | 24.2 | 4.84 | > 100 | 2.43 | 44.9 | 3.26 | > 100 |
| c1ccc(/C(=N\Nc2ccc3ccccc3n2)c2ccccn2)cc1 | 0.503 | 3.68 | 0.0927 | 3.95 | 1.11 | > 36.2 | 0.743 | 9.87 | 0.412 | 21.7 | 0.907 | 11.5 | 0.211 | 2.13 | 0.246 | 1.14 | 2.56 | > 85.2 | 0.457 | 5.61 |
| NS(=O)(=O)c1ccc(N2N=C(c3cccs3)CC2c2ccccc2O)cc1 (centres undefined) | 1.16 | 5.29 | 1.47 | 8.19 | 1.16 | 7.06 | 1.16 | 4.48 | 0.644 | 1.51 | 1.01 | 4.45 | 0.829 | 2.26 | 1.36 | > 33.3 | 0.437 | 1.76 | 1.25 | 5.22 |
| CC(C)=CCc1cc(C2COc3cc4c(c(O)c3C2=O)C=CC(C)(C)O4)c(O)cc1O (centres undefined) | – | 24.4 | – | 30.9 | – | 27.9 | – | 30.5 | – | 25.9 | – | 33.5 | – | 43.5 | – | 24.1 | – | 36 | – | 43.4 |
| Nc1cc(-c2ccccc2)n(C(=O)Nc2ccc(Oc3ccccc3)cc2)n1 | 19.7 | > 100 | 28.9 | 77.2 | 27.8 | > 100 | 30.8 | > 100 | 54.7 | > 100 | 61.7 | > 100 | 40.2 | > 100 | 22.2 | 43.5 | – | 3.04 | > 100 | > 100 |
| Cc1cn(Cc2ccccc2CCl)c(=O)n(Cc2ccccc2CCl)c1=O | 1.93 | 6.36 | 1.86 | 3.3 | 3.9 | 14.2 | 2.32 | 5.99 | 1.3 | 2.94 | 1.36 | 4.77 | 3.52 | 16.7 | 0.661 | 3.25 | 1.81 | 3.79 | 1.16 | 2.59 |
| CN(C)N=Nc1nn(C(=O)Nc2ccc(Cc3ccccc3)cc2)c2ccccc12 | 5.06 | > 100 | 1.12 | > 100 | 3.9 | > 100 | 17.1 | > 100 | 1.9 | > 100 | 0.387 | > 100 | 0.225 | 3.12 | > 100 | > 100 | 85.4 | > 100 | 0.0625 | > 73.3 |
| CC1=NN(c2ccccc2)C(=O)C1N=Nc1ccc(S(N)(=O)=O)cc1 (centres undefined) | – | > 100 | – | > 100 | – | > 100 | – | > 100 | – | > 100 | – | > 100 | – | > 100 | – | > 100 | – | > 100 | – | > 100 |
